Measurements taken from US9604996B2 (Bayer Pharma Aktiengesellschaft, priority 2013, dated 2017).

How the values were obtained:
[1] = tested on: IL-6 release by human fibroblast cell line LL29; experiment: NECA-induced IL-6 release by LL29 fibroblasts (ELISA); assay type: cell-based; details: NECA 10 μM, 24 hours incubation, IL-6 ELISA of supernatant, in some cases means, rounded to two significant digits
Method: B-2. Measurement of NECA-Induced IL-6 Release by LL29 Fibroblasts
Stimulation of fibroblasts with adenosine or the adenosine analog 5′-N-ethylcarboxamidoadenosine (NECA) leads to release of the pro-inflammatory and pro-fibrotic cytokine IL-6 which can be prevented by inhibition of the A2b receptor.
Accordingly, confluent cells of the human fibroblast cell line LL29 were treated with the test substances and stimulated with NECA (10 μM). After an incubation time of 24 hours, the cell supernatant is removed and human IL-6 in the cell supernatant is determined by ELISA (Quantikine® IL6 ELISA, R&D Systems, Minneapolis, USA).

[2] = target: T1, human adenosine A2b receptor (Homo sapiens, UniProt P29275); experiment: Cellular reporter gene (CRE-luciferase) A2b receptor antagonist assay in recombinant CHO-K1 cells stimulated with NECA; assay type: cell-based; details: recombinant CHO-K1 cell line, co-incubation with EC50 concentration of NECA, 3 hours, in some cases means, rounded to two significant digits
T1 construct: expressed in transfected cells; host or cells: CHO-K1 (Chinese Hamster Ovary) with CRE-luciferase reporter
T1 sequence (P29275 1-332): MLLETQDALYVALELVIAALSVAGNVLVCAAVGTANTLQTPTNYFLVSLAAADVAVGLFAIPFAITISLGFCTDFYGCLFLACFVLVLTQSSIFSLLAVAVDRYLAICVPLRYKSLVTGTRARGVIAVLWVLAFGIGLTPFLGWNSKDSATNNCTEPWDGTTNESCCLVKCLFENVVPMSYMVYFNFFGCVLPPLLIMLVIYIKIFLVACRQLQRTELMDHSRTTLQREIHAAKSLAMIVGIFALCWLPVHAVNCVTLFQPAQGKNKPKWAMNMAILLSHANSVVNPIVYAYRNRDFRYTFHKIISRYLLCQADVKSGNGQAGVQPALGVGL
Outline: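 CHO-K1 cells expressing human A2b receptor with a CRE-driven firefly luciferase reporter, co-incubated with test compound and NECA at its same-day EC50 concentration. Luminescence read 3 hours after NECA addition.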

| Compound | IC50 [1] | IC50 [2] |
| --- | --- | --- |
| CCn1c(=O)c2c(C)c(C(=O)N3CCC(O)(CO)CC3)sc2n(CCC(F)(F)F)c1=O [Example 74, 3-Ethyl-6-{[4-hydroxy-4-(hydroxymethyl)piperidin-1-yl]carbonyl}-5-methyl-1-(3,3,3-trifluoropropyl)thieno[2,3-d]pyrimidine-2,4(1H,3H)-dione] | 250 nM | 110 nM |
| Cc1c(C(=O)N2CCNC(=O)C2)sc2c1c(=O)n(CCc1ccccc1Cl)c(=O)n2CCC=C(F)F [Example 32, 3-[2-(2-Chlorophenyl)ethyl]-1-(4,4-difluorobut-3-en-1-yl)-5-methyl-6-[(3-oxopiperazin-1-yl)carbonyl]thieno[2,3-d]pyrimidine-2,4(1H,3H)-dione] | 230 nM | 110 nM |
| Cc1c(C(=O)N2CCNC(=O)C2)sc2c1c(=O)n(CCc1cccnc1)c(=O)n2CCC(F)(F)F [Example 33, 5-Methyl-6-[(3-oxopiperazin-1-yl)carbonyl]-3-[2-(pyridin-3-yl)ethyl]-1-(3,3,3-trifluoropropyl)thieno[2,3-d]pyrimidine-2,4(1H,3H)-dione] | 140 nM | 67 nM |
| CCc1c(C(=O)N2CCC(O)(CO)CC2)sc2c1c(=O)n(CC)c(=O)n2CCC(F)(F)F [Example 89, 3,5-Diethyl-6-{[4-hydroxy-4-(hydroxymethyl)piperidin-1-yl]carbonyl}-1-(3,3,3-trifluoropropyl)thieno[2,3-d]pyrimidine-2,4(1H,3H)-dione] | 48 nM | 35 nM |
| Cc1c(C(=O)N2CCNC(=O)C2)sc2c1c(=O)n(CCc1ccccc1Cl)c(=O)n2CCC(F)(F)F [Example 31, 3-[2-(2-Chlorophenyl)ethyl]-5-methyl-6-[(3-oxopiperazin-1-yl)carbonyl]-1-(3,3,3-trifluoropropyl)thieno[2,3-d]pyrimidine-2,4(1H,3H)-dione] | 16 nM | 16 nM |
| Cc1c(C(=O)N2CCC(O)CC2)sc2c1c(=O)n(CCc1ccccc1F)c(=O)n2CCC(F)(F)F [Example 4, 3-[2-(2-Fluorophenyl)ethyl]-6-[(4-hydroxypiperidin-1-yl)carbonyl]-5-methyl-1-(3,3,3-trifluoropropyl)thieno[2,3-d]pyrimidine-2,4(1H,3H)-dione] | 39 nM | 25 nM |
| CCn1c(=O)c2c(C)c(C(=O)N3CCC(C)(O)CC3)sc2n(CCC(F)(F)F)c1=O [Example 21, 3-Ethyl-6-[(4-hydroxy-4-methylpiperidin-1-yl)carbonyl]-5-methyl-1-(3,3,3-trifluoropropyl)thieno [2,3-d]pyrimidine-2,4(1H,3H)-dione] | 69 nM | 25 nM |
| O=C1CN(C(=O)c2sc3c(c2C(F)(F)F)c(=O)n(CCc2ccccc2)c(=O)n3CCC(F)(F)F)CCN1 [Example 41, 6-[(3-Oxopiperazin-1-yl)carbonyl]-3-(2-phenylethyl)-5-(trifluoromethyl)-1-(3,3,3-trifluoropropyl)thieno[2,3-d]pyrimidine-2,4(1H,3H)-dione] | 29 nM | 26 nM |
| Cc1c(C(=O)N2CCC(O)CC2)sc2c1c(=O)n(CCc1ccncc1)c(=O)n2CCC(F)(F)F [Example 54, 6-[(4-Hydroxypiperidin-1-yl)carbonyl]-5-methyl-3-[2-(pyridin-4-yl)ethyl]-1-(3,3,3-trifluoropropyl)thieno[2,3-d]pyrimidine-2,4(1H,3H)-dione] | 330 nM | 76 nM |
| CCn1c(=O)c2c(C)c(C(=O)N3CCC(O)CC3)sc2n(CCC(F)(F)F)c1=O [Example 18, 3-Ethyl-6-[(4-hydroxypiperidin-1-yl)carbonyl]-5-methyl-1-(3,3,3-trifluoropropyl)thieno[2,3-d]pyrimidine-2,4(1H,3H)-dione] | 170 nM | 57 nM |
| Cc1c(C(=O)N2CCNC(=O)C2)sc2c1c(=O)n(CCc1ccccc1)c(=O)n2CCC(F)(F)F [Example 26, 5-Methyl-6-[(3-oxopiperazin-1-yl)carbonyl]-3-(2-phenylethyl)-1-(3,3,3-trifluoropropyl)thieno[2,3-d]pyrimidine-2,4(1H,3H)-dione] | 53 nM | 17 nM |
| CCc1c(C(=O)N2CCC(C)(O)CC2)sc2c1c(=O)n(CC)c(=O)n2CCC(F)(F)F [Example 88, 3,5-Diethyl-6-[(4-hydroxy-4-methylpiperidin-1-yl)carbonyl]-1-(3,3,3-trifluoropropyl)thieno[2,3-d]pyrimidine-2,4(1H,3H)-dione] | 9 nM | 8.7 nM |
| CCn1c(=O)c2c(C)c(C(=O)N3CCNC(=O)C3)sc2n(CCC(F)(F)F)c1=O [Example 35, 3-Ethyl-5-methyl-6-[(3-oxopiperazin-1-yl)carbonyl]-1-(3,3,3-trifluoropropyl)thieno[2,3-d]pyrimidine-2,4(1H,3H)-dione] | 250 nM | 120 nM |
| O=C(c1sc2c(c1C(F)(F)F)c(=O)n(CCc1ccccc1)c(=O)n2CCC(F)(F)F)N1CCC(O)CC1 [Example 24, 6-[(4-Hydroxypiperidin-1-yl)carbonyl]-3-(2-phenylethyl)-5-(trifluoromethyl)-1-(3,3,3-trifluoropropyl)thieno[2,3-d]pyrimidine-2,4(1H,3H)-dione] | 10 nM | 13 nM |
| Cc1c(C(=O)N2CCNC(=O)C2)sc2c1c(=O)n(CCc1ccccc1F)c(=O)n2CCC(F)(F)F [Example 29, 3-[2-(2-Fluorophenyl)ethyl]-5-methyl-6-[(3-oxopiperazin-1-yl)carbonyl]-1-(3,3,3-trifluoropropyl)thieno[2,3-d]pyrimidine-2,4(1H,3H)-dione] | 23 nM | 21 nM |
| Cc1c(C(=O)N2CCC(O)CC2)sc2c1c(=O)n(CCc1ccccc1Cl)c(=O)n2CCC(F)(F)F [Example 6, 3-[2-(2-Chlorophenyl)ethyl]-6-[(4-hydroxypiperidin-1-yl)carbonyl]-5-methyl-1-(3,3,3-trifluoropropyl)thieno [2,3-d]pyrimidine-2,4(1H,3H)-dione] | 27 nM | 13 nM |
| CCCn1c(=O)c2c(C(F)F)c(C(=O)N3CCC(C)(O)CC3)sc2n(CCOC(F)(F)F)c1=O [Example 151, 5-(Difluoromethyl)-6-[(4-hydroxy-4-methylpiperidin-1-yl)carbonyl]-3-propyl-1-[2-(trifluoromethoxy)ethyl]thieno[2,3-d]pyrimidine-2,4(1H,3H)-dione] | – | 14 nM |
| O=C(c1sc2c(c1C(F)F)c(=O)n(CCc1ccccc1)c(=O)n2CCC(F)(F)F)N1CCC(O)CC1 [Example 84, 5-(Difluoromethyl)-6-[(4-hydroxypiperidin-1-yl)carbonyl]-3-(2-phenylethyl)-1-(3,3,3-trifluoropropyl)thieno[2,3-d]pyrimidine-2,4(1H,3H)-dione] | – | 19 nM |
| CC1(O)CCN(C(=O)c2cc3c(=O)n(CCc4ccccc4)c(=O)n(CCC(F)(F)F)c3s2)CC1 [Example 91, 6-[(4-Hydroxy-4-methylpiperidin-1-yl)carbonyl]-3-(2-phenylethyl)-1-(3,3,3-trifluoropropyl)thieno[2,3-d]pyrimidine-2,4(1H,3H)-dione] | – | 260 nM |
| Cc1c(C(=O)N2CCC(O)CC2)sc2c1c(=O)n(CCC1CC1)c(=O)n2CCC(F)(F)F [Example 63, 3-(2-Cyclopropylethyl)-6-[(4-hydroxypiperidin-1-yl)carbonyl]-5-methyl-1-(3,3,3-trifluoropropyl)thieno[2,3-d]pyrimidine-2,4(1H,3H)-dione] | – | 210 nM |
